How the values were obtained:
[1] = target: human S1P5 (EDG-8) (Homo sapiens, UniProt Q9H228); assay: S1P receptor agonist activity by monitoring intracellular calcium concentration (S1P5); assay type: cell-based; conditions: for S1P5 receptor agonist activity: CHO cells overexpressing human S1P5, intracellular calcium, S1P = 100%; for balance of S1P5 receptor agonist activity with respect to S1P1 receptor (selectivity): comparison of agonist activities on S1P1 and S1P5
Description: (§1) Chinese hamster ovary (CHO) cells in which human S1P1 (EDG-1) or human S1P5 (EDG-8) genes were overexpressed were cultured in Ham's F-12 medium containing 10% FBS (fetal bovine serum), penicillin/streptomycin, and geneticin (0.25 mg/mL). The medium was changed one day before the calcium assay was performed and on the day of the assay. Four hours after medium exchange, medium was removed and washed once with phosphate buffered saline. 0.05% Trypsin EDTA was added thereto to exfoliate the cells, and then a medium was added to recover the cells. The collected cell suspension was centrifuged to remove the supernatant, and suspended in phosphate buffered saline to count the number of cells. The cells were suspended in a Hanks solution containing Calcium 6 Assay Reagent (manufactured by Molecular Devices), 20 mM HEPES and 2.5 mM Probenecid so as to be 1.1×10^6 cells/mL, and incubated at 37° C. for about 1 hour. Thereafter, the supernatant was removed by centrifugation, and the cells were suspended in a Hanks solution containing 20 mM HEPES, 2.5 mM Probenecid and 0.1% BSA so as to be 2.2×10^6 cells/mL. The suspension was seeded in a 96 well plate at 80 μL/well. A plate was set in a fluorescent drug screening system (FDSS6000), Compound I or a comparative compound, and S1P were sequentially added, and an increase in intracellular calcium concentration before and after addition was measured at an excitation wavelength of 480 nm and a fluorescence wavelength of 540 nm. The increase in intracellular calcium concentration was evaluated by signal intensity at a fluorescence wavelength, and the agonist activity of each compound was calculated with the signal intensity when S1P was added instead of the compound as 100% activity.

[2] = target: human S1P1 (EDG-1) (Homo sapiens, UniProt P21453); assay: S1P receptor agonist activity by monitoring intracellular calcium concentration (S1P1); assay type: cell-based; conditions: CHO cells overexpressing human S1P1, intracellular calcium, S1P = 100%
Description: as §1

[3] = Measurement of clearance in rats; assay type: in vivo, rat; conditions: male SD rats, fasted, tail-intravenous administration, plasma
Description: A solution of Compound I was tail-intravenously administered to male SD rats under fasted conditions. After administration, rats were retained by a manual method at regular time intervals, and blood was collected from the jugular vein with sodium heparin.
The blood was centrifuged at 10,000 g, 3 min, 4° C. to obtain plasma. Concentration of Compound I in the plasma was measured by LC/MS/MS. Clearance was calculated from the plasma concentration transition using pharmacokinetic analysis software Phoenix WinNonlin (Certara USA, Inc.).

[4] = tested on: mouse experimental autoimmune encephalomyelitis model; assay: Effectiveness in mouse experimental autoimmune encephalomyelitis model; assay type: in vivo; conditions: female C57BL/J mice, MOG35-55 immunization, oral once a day for 30 days
Description: Female C57BL/J mice (Charles River Laboratories Japan, Inc., age at start of experiment: 7 or 8 weeks of age) were used. Myelin Oligodendrocyte Glycoprotein [sequence 35-55 […] (AnaSpec, Inc., hereinafter MOG35-55)] was dissolved in physiological saline (Otsuka Pharmaceutical Factory, Inc.) to prepare a 2 mg/mL solution. The 2 mg/mL solution of MOG35-55 and an equal amount of FCA H37Ra (Difco Laboratories) were mixed to prepare an emulsion, and the emulsion was used as an inducing agent. Immunization was performed by subcutaneously administering 0.2 mL of the inducing agent into the mouse flank using a glass syringe equipped with a 26G injection needle. […]
After dividing into groups, administration of a test substance (Compound I), a positive control compound (FTY720; fingolimod), or a vehicle (water for injection) was started on the same day, and each test substance was repetitively orally administered once a day for 30 days from the day before the immunization to day 28 of immunization. The amount of the solution to be administered was calculated based on the individual body weight on the day of administration. […]

[5] = Chemical stability test (residual rate by HPLC after storage); assay type: physicochemical; conditions: vs sample stored at −20° C.
Description: Stability of the salts and/or crystal forms of the present invention was studied under the storage conditions of Condition 1 or Condition 2. After storage, the residual rate (%) of the stored sample under each condition was calculated by HPLC based on the area percentage of the sample stored at −20° C.
• Condition 1 60° C.: 1 month: pulverized • Condition 2 80° C.: 1 week: unpulverized
Comparison object of each sample was stored at −20° C.

[6] = Condition 1: 60° C.: 1 month: pulverized
[7] = Condition 2: 80° C.: 1 week: unpulverized

human S1P5 (EDG-8), sequence (Q9H228 whole entry): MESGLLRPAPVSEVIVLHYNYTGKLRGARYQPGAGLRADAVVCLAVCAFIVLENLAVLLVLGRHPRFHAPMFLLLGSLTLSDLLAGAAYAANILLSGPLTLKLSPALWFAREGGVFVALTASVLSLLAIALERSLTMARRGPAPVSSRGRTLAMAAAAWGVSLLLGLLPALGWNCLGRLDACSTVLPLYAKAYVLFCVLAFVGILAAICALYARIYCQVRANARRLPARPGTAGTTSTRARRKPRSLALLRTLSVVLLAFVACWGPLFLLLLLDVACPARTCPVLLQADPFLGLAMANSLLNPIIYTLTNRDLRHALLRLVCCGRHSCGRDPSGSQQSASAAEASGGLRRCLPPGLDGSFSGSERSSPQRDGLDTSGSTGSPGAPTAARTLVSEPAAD
human S1P1 (EDG-1), sequence (P21453 whole entry): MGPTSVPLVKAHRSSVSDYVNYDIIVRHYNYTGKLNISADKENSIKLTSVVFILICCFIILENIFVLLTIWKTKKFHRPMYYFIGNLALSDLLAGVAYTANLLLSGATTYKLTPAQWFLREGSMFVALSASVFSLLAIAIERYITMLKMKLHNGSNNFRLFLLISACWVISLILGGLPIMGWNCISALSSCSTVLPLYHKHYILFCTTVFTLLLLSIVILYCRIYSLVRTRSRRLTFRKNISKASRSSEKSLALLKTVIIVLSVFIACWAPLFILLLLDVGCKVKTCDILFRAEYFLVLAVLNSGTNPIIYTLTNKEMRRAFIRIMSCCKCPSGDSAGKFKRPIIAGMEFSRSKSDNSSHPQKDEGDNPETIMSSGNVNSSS

| Compound | Residual rate (%) [5, 6] | Residual rate (%) [5, 7] | also measured |
| --- | --- | --- | --- |
| CCCCCCCCOc1ccc2c(c1)CCC(CN1CC(C(=O)O)C1)=C2C.Cl [Comparative Compound A, 1-{[1-methyl-6-(octyloxy)-3,4-dihydro-2-naphthalenyl]methyl}-3-azetidine carboxylic acid hydrochloride] | – | – | S1P5 receptor agonist activity [1]: had both S1P1 and S1P5 receptor agonist activities; balance of S1P5 receptor agonist activity with respect to S1P1 receptor (selectivity) [1]: S1P1 receptor agonist activity being stronger than S1P5 receptor agonist activity; S1P1 receptor agonist activity [2]: had both S1P1 and S1P5 receptor agonist activities |
| CCCc1ccc(COc2ccc3c(c2)CCC(CN2CC(C(=O)O)C2)=C3C)c(OC)c1 [Comparative Compound B, 1-({6-[(2-methoxy-4-propylbenzyl)oxy]-1-methyl-3,4-dihydro-2-naphthalenyl}methyl)-3-azetidine carboxylic acid] | – | – | S1P5 receptor agonist activity [1]: had both S1P1 and S1P5 receptor agonist activities; balance of S1P5 receptor agonist activity with respect to S1P1 receptor (selectivity) [1]: S1P1 receptor agonist activity being stronger than S1P5 receptor agonist activity; S1P1 receptor agonist activity [2]: had both S1P1 and S1P5 receptor agonist activities |
| COc1ccc2c(c1)C[C@H](C)C(CN1CC(F)(C(=O)O)C1)=C2 [Comparative Example, (S)-3-Fluoro-1-[(6-methoxy-3-methyl-3,4-dihydronaphthalen-2-yl)methyl]azetidine-3-carboxylic acid] | – | – | S1P5 receptor agonist activity [1]: did not have S1P1 and S1P5 receptor agonist activities; S1P1 receptor agonist activity [2]: did not have S1P1 and S1P5 receptor agonist activities |
| C[C@H]1Cc2cc(OCCCC(F)(F)F)ccc2C=C1CN1CC(C(=O)O)C1 [Compound I, 1-[[(3S)-3-Methyl-6-(4,4,4-trifluorobutoxy)-3,4-dihydronaphthalen-2-yl]methyl]azetidine-3-carboxylic acid] | – | – | balance of S1P5 receptor agonist activity with respect to S1P1 receptor (selectivity) [1]: selective agonist activity on the S1P5 receptor; Clearance [3]: low clearance; effectiveness in EAE model (neurological symptom score) [4]: shows effectiveness |
| C[C@H]1Cc2cc(OCCCC(F)(F)F)ccc2C=C1CN1CC(C(=O)O)C1 [Example 7, 1-[[(3S)-3-methyl-6-(4,4,4-trifluorobutoxy)-3,4-dihydronaphthalen-2-yl]methyl]azetidine-3-carboxylic acid] | 99.1% | – | – |
| C[C@H]1Cc2cc(OCCCC(F)(F)F)ccc2C=C1CN1CC(C(=O)O)C1.O [Example 8, hydrate of 1-[[(3S)-3-methyl-6-(4,4,4-trifluorobutoxy)-3,4-dihydronaphthalen-2-yl]methyl]azetidine-3-carboxylic acid] | 97.8% | – | – |
| C[C@H]1Cc2cc(OCCCC(F)(F)F)ccc2C=C1CN1CC(C(=O)O)C1.O=C(O)c1ccccc1 [Example 9, monobenzoate of 1-[[(3S)-3-methyl-6-(4,4,4-trifluorobutoxy)-3,4-dihydronaphthalen-2-yl]methyl]azetidine-3-carboxylic acid] | 97.9% | – | – |
| C[C@H]1Cc2cc(OCCCC(F)(F)F)ccc2C=C1CN1CC(C(=O)O)C1.O=C(O)c1ccc(O)cc1 [Example 10, mono(4-hydroxybenzoate) of 1-[[(3S)-3-methyl-6-(4,4,4-trifluorobutoxy)-3,4-dihydronaphthalen-2-yl]methyl]azetidine-3-carboxylic acid] | 99.4% | 99.6% | – |
| C[C@H]1Cc2cc(OCCCC(F)(F)F)ccc2C=C1CN1CC(C(=O)O)C1.O.O=C(O)c1ccc(O)cc1 [Example 12, hydrate of mono(4-hydroxybenzoate) of 1-[[(3S)-3-methyl-6-(4,4,4-trifluorobutoxy)-3,4-dihydronaphthalen-2-yl]methyl]azetidine-3-carboxylic acid] | 95.3% | – | – |
| C[C@H]1Cc2cc(OCCCC(F)(F)F)ccc2C=C1CN1CC(C(=O)O)C1.C[C@H]1Cc2cc(OCCCC(F)(F)F)ccc2C=C1CN1CC(C(=O)O)C1.O=S(=O)(O)O [Example 13, hemisulfate of 1-[[(3S)-3-methyl-6-(4,4,4-trifluorobutoxy)-3,4-dihydronaphthalen-2-yl]methyl]azetidine-3-carboxylic acid] | 97.1% | – | – |
| C[C@H]1Cc2cc(OCCCC(F)(F)F)ccc2C=C1CN1CC(C(=O)O)C1.N[C@@H](Cc1c[nH]c2ccccc12)C(=O)O [Example 14, mono-tryptophan salt of 1-[[(3S)-3-methyl-6-(4,4,4-trifluorobutoxy)-3,4-dihydronaphthalen-2-yl]methyl]azetidine-3-carboxylic acid] | 99.1% | 99.6% | – |
| C[C@H]1Cc2cc(OCCCC(F)(F)F)ccc2C=C1CN1CC(C(=O)O)C1.C[C@H]1Cc2cc(OCCCC(F)(F)F)ccc2C=C1CN1CC(C(=O)O)C1.O=C(O)CCC(=O)O [Example 15, hemisuccinate of 1-[[(3S)-3-methyl-6-(4,4,4-trifluorobutoxy)-3,4-dihydronaphthalen-2-yl]methyl]azetidine-3-carboxylic acid] | – | 99.1% | – |
| C[C@H]1Cc2cc(OCCCC(F)(F)F)ccc2C=C1CN1CC(C(=O)O)C1.C[C@H]1Cc2cc(OCCCC(F)(F)F)ccc2C=C1CN1CC(C(=O)O)C1.O=C(O)CCCCC(=O)O [Example 16, hemiadipate of 1-[[(3S)-3-methyl-6-(4,4,4-trifluorobutoxy)-3,4-dihydronaphthalen-2-yl]methyl]azetidine-3-carboxylic acid] | – | 95.8% | – |
